# In patent US20250382344A1, “Soluble GLP1/GIP/NPY2 Receptor Triple Agonists” (Boehringer Ingelheim International GmH, priority 2024, published 2025):
# Assays:
# [1] = target: T1, hGIPR (Homo sapiens, UniProt P48546); assay: hGIPR CreLuc assay in 0.5% and 100% plasma (CHO CRE-luciferase reporter cells); type: cell-based; settings: 0.5% human plasma, read-out: hGIPR 0.5% hP
# T1 construct: expressed in transfected cells; host or cells: CHO CRE-luciferase reporter cells
# T1 sequence (P48546 22-466): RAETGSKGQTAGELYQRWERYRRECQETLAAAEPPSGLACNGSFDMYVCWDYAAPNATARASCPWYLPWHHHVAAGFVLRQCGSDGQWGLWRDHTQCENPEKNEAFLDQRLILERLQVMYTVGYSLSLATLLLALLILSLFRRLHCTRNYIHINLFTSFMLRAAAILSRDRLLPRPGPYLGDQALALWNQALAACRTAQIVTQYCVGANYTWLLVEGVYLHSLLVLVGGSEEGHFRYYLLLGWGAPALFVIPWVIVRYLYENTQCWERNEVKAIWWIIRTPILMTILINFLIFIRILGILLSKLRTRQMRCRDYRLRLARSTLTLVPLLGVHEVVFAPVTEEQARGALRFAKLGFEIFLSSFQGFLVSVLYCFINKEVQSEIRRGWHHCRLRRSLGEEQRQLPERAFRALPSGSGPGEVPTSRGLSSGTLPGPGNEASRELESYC
# [2] = Solubility in 0.1 M phosphate buffer at pH 7; type: physicochemical; settings: 0.1 M phosphate buffer at pH 7, 10 mg/mL final peptide concentration, shaking 2 hours at room temperature, peptides as TFA-salts, measured sample pH 6.5-7.0
EC50 [1],solubility at 2 h [2],solubility ([2]; read-out: Solubility),Structure (SMILES)
0.4 nM,4300 µg/mL,–,"CC[C@H](C)[C@H](NC(=O)[C@H](CC(C)C)NC(=O)[C@H](Cc1c[nH]cn1)NC(=O)[C@H](CCCNC(=N)N)NC(=O)[C@@H](NC(=O)[C@H](Cc1ccccc1)NC(=O)[C@H](CO)NC(=O)C(C)(C)NC(=O)[C@H](CCC(N)=O)NC(=O)[C@H](C)NC(=O)[C@H](CCC(N)=O)NC(=O)[C@H](CCCCN)NC(=O)[C@H](CCC(=O)O)NC(=O)[C@H](CC(C)C)NC(=O)C(C)(C)NC(=O)[C@@H](NC(=O)[C@H](CO)NC(=O)[C@H](Cc1ccc(O)cc1)NC(=O)[C@H](CC(=O)O)NC(=O)[C@H](CO)NC(=O)[C@@H](NC(=O)[C@H](Cc1ccccc1)NC(=O)[C@@H](NC(=O)CNC(=O)[C@H](CCC(=O)O)NC(=O)C(C)(C)NC(=O)[C@@H](N)Cc1ccc(O)cc1)[C@@H](C)O)[C@@H](C)O)[C@@H](C)CC)C(C)C)C(=O)N[C@@H](CC(N)=O)C(=O)N[C@@H](CCCCNC(=O)[C@@H](N)CCCCNC(=O)CC[C@H](NC(=O)CC[C@H](NC(=O)CC[C@H](NC(=O)CC[C@H](NC(=O)CC[C@H](NC(=O)CC[C@H](NC(=O)CCCCCCCCCCCCCCCCC(=O)O)C(=O)O)C(=O)O)C(=O)O)C(=O)O)C(=O)O)C(=O)O)C(=O)NC(C)(C)C(=O)N[C@H](C(=O)N[C@@H](CCCNC(=N)N)C(=O)N[C@@H](CCC(N)=O)C(=O)N[C@@H](CCCNC(=N)N)C(=O)N[C@@H](Cc1ccc(O)cc1)C(N)=O)[C@@H](C)O [Compound 144, Y-Aib-E-G-T-F-T-S-D-Y-S-I-Aib-L-E-K-Q-A-Q-Aib-S-F-V-R-H-L-I-N-K(1,3)-Aib-T-R-Q-R-Y-NH2.C18DA-gGlu-gGlu-gGlu-gGlu-gGlu-gGlu-eLys(1,2)]"
0.6 nM,–,4900 µg/mL,"CC[C@H](C)[C@H](NC(=O)[C@H](CC(C)C)NC(=O)[C@H](Cc1c[nH]cn1)NC(=O)[C@H](CCCNC(=N)N)NC(=O)[C@@H](NC(=O)[C@H](Cc1ccccc1)NC(=O)[C@H](CCC(=O)O)NC(=O)C(C)(C)NC(=O)[C@H](CCC(N)=O)NC(=O)[C@H](C)NC(=O)[C@H](CCC(N)=O)NC(=O)[C@H](CCCCN)NC(=O)[C@H](CCC(=O)O)NC(=O)[C@H](CC(C)C)NC(=O)C(C)(C)NC(=O)[C@@H](NC(=O)[C@H](CO)NC(=O)[C@H](Cc1ccc(O)cc1)NC(=O)[C@H](CC(=O)O)NC(=O)[C@H](CO)NC(=O)[C@@H](NC(=O)[C@H](Cc1ccccc1)NC(=O)[C@@H](NC(=O)CNC(=O)[C@H](CCC(=O)O)NC(=O)C(C)(C)NC(=O)[C@@H](N)Cc1ccc(O)cc1)[C@@H](C)O)[C@@H](C)O)[C@@H](C)CC)C(C)C)C(=O)N[C@@H](CC(N)=O)C(=O)N[C@@H](CCCCNC(=O)[C@@H](N)CCCCNC(=O)CC[C@H](NC(=O)CC[C@H](NC(=O)CC[C@H](NC(=O)CC[C@H](NC(=O)CC[C@H](NC(=O)CC[C@H](NC(=O)CCCCCCCCCCCCCCCCCCC(=O)O)C(=O)O)C(=O)O)C(=O)O)C(=O)O)C(=O)O)C(=O)O)C(=O)NC(C)(C)C(=O)N[C@H](C(=O)N[C@@H](CCCNC(=N)N)C(=O)N[C@@H](CCC(N)=O)C(=O)N[C@@H](CCCNC(=N)N)C(=O)N[C@@H](Cc1ccc(O)cc1)C(N)=O)[C@@H](C)O [Compound 149, Y-Aib-E-G-T-F-T-S-D-Y-S-I-Aib-L-E-K-Q-A-Q-Aib-E-F-V-R-H-L-I-N-K(1,3)-Aib-T-R-Q-R-Y-NH2.C20DA-gGlu-gGlu-gGlu-gGlu-gGlu-gGlu-eLys(1,2)]"
0.7 nM,8900 µg/mL,–,"CC[C@H](C)[C@H](NC(=O)[C@H](CC(C)C)NC(=O)[C@H](Cc1c[nH]cn1)NC(=O)[C@H](CCCNC(=N)N)NC(=O)[C@@H](NC(=O)[C@H](Cc1ccccc1)NC(=O)[C@H](C)NC(=O)C(C)(C)NC(=O)[C@H](CCC(N)=O)NC(=O)[C@H](C)NC(=O)[C@H](CCC(N)=O)NC(=O)[C@H](CCC(=O)O)NC(=O)[C@H](CC(=O)O)NC(=O)[C@H](CC(C)C)NC(=O)C(C)(C)NC(=O)[C@@H](NC(=O)[C@H](CO)NC(=O)[C@H](Cc1ccc(O)cc1)NC(=O)[C@H](CC(=O)O)NC(=O)[C@H](CO)NC(=O)[C@@H](NC(=O)[C@H](Cc1ccccc1)NC(=O)[C@@H](NC(=O)CNC(=O)[C@H](CCC(=O)O)NC(=O)C(C)(C)NC(=O)[C@@H](N)Cc1ccc(O)cc1)[C@@H](C)O)[C@@H](C)O)[C@@H](C)CC)C(C)C)C(=O)N[C@@H](CC(N)=O)C(=O)N[C@@H](CCCCNC(=O)[C@@H](N)CCCCNC(=O)[C@@H](N)CCCCNC(=O)CC[C@H](NC(=O)CC[C@H](NC(=O)CC[C@H](NC(=O)CC[C@H](NC(=O)CC[C@H](NC(=O)CCCCCCCCCCCCCCCCCCC(=O)O)C(=O)O)C(=O)O)C(=O)O)C(=O)O)C(=O)O)C(=O)NC(C)(C)C(=O)N[C@H](C(=O)N[C@@H](CCCNC(=N)N)C(=O)N[C@@H](CCC(N)=O)C(=O)N[C@@H](CCCNC(=N)N)C(=O)N[C@@H](Cc1ccc(O)cc1)C(N)=O)[C@@H](C)O [Compound 155, Y-Aib-E-G-T-F-T-S-D-Y-S-I-Aib-L-D-E-Q-A-Q-Aib-A-F-V-R-H-L-I-N-K(1,3)-Aib-T-R-Q-R-Y-NH2.C20DA-gGlu-gGlu-gGlu-gGlu-gGlu-eLys-eLys(1,2)]"
0.2 nM,9600 µg/mL,–,"CC[C@H](C)[C@H](NC(=O)[C@H](CC(C)C)NC(=O)[C@H](Cc1c[nH]cn1)NC(=O)[C@H](CCCNC(=N)N)NC(=O)[C@@H](NC(=O)[C@H](Cc1ccccc1)NC(=O)[C@H](C)NC(=O)C(C)(C)NC(=O)[C@H](CCC(N)=O)NC(=O)[C@H](C)NC(=O)[C@H](CCC(N)=O)NC(=O)[C@H](CCCCN)NC(=O)[C@H](CCC(=O)O)NC(=O)[C@H](CC(C)C)NC(=O)C(C)(C)NC(=O)[C@@H](NC(=O)[C@H](CO)NC(=O)[C@H](Cc1ccc(O)cc1)NC(=O)[C@H](CC(=O)O)NC(=O)[C@H](CO)NC(=O)[C@@H](NC(=O)[C@H](Cc1ccccc1)NC(=O)[C@@H](NC(=O)CNC(=O)[C@H](CCC(=O)O)NC(=O)C(C)(C)NC(=O)[C@@H](N)Cc1ccc(O)cc1)[C@@H](C)O)[C@@H](C)O)[C@@H](C)CC)C(C)C)C(=O)N[C@@H](CC(N)=O)C(=O)N[C@@H](CCCCNC(=O)[C@@H](N)CCCCNC(=O)CC[C@H](NC(=O)CC[C@H](NC(=O)CC[C@H](NC(=O)CC[C@H](NC(=O)CC[C@H](NC(=O)CC[C@H](NC(=O)CCCCCCCCCCCCCCCCC(=O)O)C(=O)O)C(=O)O)C(=O)O)C(=O)O)C(=O)O)C(=O)O)C(=O)N[C@@H](C)C(=O)N[C@H](C(=O)N[C@@H](CCCNC(=N)N)C(=O)N[C@@H](CCC(N)=O)C(=O)N[C@@H](CCCNC(=N)N)C(=O)N[C@@H](Cc1ccc(O)cc1)C(N)=O)[C@@H](C)O [Compound 159, Y-Aib-E-G-T-F-T-S-D-Y-S-I-Aib-L-E-K-Q-A-Q-Aib-A-F-V-R-H-L-I-N-K(1,3)-A-T-R-Q-R-Y-NH2.C18DA-gGlu-gGlu-gGlu-gGlu-gGlu-gGlu-eLys(1,2)]"
